Results taken from article PMC12005349 (Journal of Cellular and Molecular Medicine, 2025).
No end group written: not given here.

What was measured:
[1] = target: T1, TGFβRI/TGFβRII receptor complex (Homo sapiens, UniProt P36897+P37173); test: Dual-Luciferase reporter (CAGA12-Luc/TK Renilla) luminescence assay of TGF-β signalling on HEK293T cells; assay type: cell-based; conditions: PI 500 nM to 50 μM, 60 min, then TGF-β 6 h, 4-parameter logistic regression, 4 biological replicates
T1 construct: host or cells: HEK293T CAGA12-Luc/TK Renilla reporter cells
T1 sequence (P36897 34-503): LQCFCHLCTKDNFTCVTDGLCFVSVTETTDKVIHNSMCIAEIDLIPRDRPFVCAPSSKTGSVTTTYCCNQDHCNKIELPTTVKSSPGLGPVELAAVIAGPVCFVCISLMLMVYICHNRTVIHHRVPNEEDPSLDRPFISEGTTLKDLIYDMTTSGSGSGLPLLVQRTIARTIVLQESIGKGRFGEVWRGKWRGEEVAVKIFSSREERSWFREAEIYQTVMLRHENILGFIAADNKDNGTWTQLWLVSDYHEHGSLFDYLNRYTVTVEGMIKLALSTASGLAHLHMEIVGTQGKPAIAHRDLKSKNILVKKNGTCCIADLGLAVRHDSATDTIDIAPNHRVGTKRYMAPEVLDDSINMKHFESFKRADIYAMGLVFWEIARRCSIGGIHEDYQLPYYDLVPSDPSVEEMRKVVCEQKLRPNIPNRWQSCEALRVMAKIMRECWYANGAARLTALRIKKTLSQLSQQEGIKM
T1 sequence (P37173 23-567): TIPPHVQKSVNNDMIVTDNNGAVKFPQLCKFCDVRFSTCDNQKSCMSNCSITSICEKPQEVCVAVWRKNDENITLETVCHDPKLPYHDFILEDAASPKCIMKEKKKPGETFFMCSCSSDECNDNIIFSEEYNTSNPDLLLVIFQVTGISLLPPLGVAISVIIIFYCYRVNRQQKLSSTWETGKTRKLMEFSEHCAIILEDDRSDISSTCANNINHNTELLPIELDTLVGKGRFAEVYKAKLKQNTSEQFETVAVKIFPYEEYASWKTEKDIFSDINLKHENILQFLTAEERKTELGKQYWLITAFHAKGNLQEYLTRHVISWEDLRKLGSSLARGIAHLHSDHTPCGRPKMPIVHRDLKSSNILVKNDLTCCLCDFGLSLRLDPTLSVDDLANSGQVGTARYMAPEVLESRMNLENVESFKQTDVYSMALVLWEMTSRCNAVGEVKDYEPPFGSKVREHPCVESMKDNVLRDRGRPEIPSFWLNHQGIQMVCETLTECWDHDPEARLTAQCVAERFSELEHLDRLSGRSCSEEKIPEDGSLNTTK
Excerpt: The cell line stably expresses CAGA12‐Luc, a Smad3/Smad4‐dependent reporter containing 12 copies of CAGAC motifs derived from the PAI‐1 promoter. This reporter protein is expressed and secreted by HEK293T cells upon TGFβRI/TGFβRII activation. The cell line also contains a Renilla reporter driven by a thymidine kinase (TK) promoter that acts as an internal control.
The presence of the described reporter activity allows HEK293T cells to be used to measure TGF‐β signalling activity using luciferase assays. The Promega Dual‐Luciferase Reporter Assay System (Promega, cat. no E1910) kit was used for assays on the HEK293T cell line. The following procedure was carried out according to manufacturer protocols. Cells were seeded in 96‐well plates coated with poly‐d‐lysine (PDL), in a DMEM 10% FBS medium. All experiments were carried out with the use of 4 biological replicates per group. After 24 h of incubation, the culture medium was removed and the cells were washed three times with PBS. […] After incubation, an additional volume of fresh blank medium or medium supplemented with TGF‐β was added to the wells. The cells were incubated again for 6 h, after which the contents of the wells were removed and the wells rinsed again with PBS. The cells were stored at −80°C until measurement.
Prior to measurement, cells were lysed using a passive lysis buffer. The lysate from each well was added to corresponding wells on a new 96‐well plate containing a reagent that induces luminescence of the first reporter protein, which is expressed by the HEK293T cells upon TGF‐β receptor activation. Luminescence was read using a plate reader with a luminescence measurement function (Victor EX, Perkin Elmer), following the kit manufacturer's instructions. After the measurement, a reagent that activates the second reporter protein (constitutively expressed by HEK293T cells, serves as an internal control) was added to each well, and the luminescence reading was repeated. All luciferase‐based assays were conducted using 4 biological replicates (cell cultures seeded and cultured independently) for each inhibitor and concentration tested.
IC50 values were calculated using 4‐parameter logistic regression in the Prism 9.0 (GraphPad) software. […] All measured results were considered significant at α level = 0.05. The α level is the threshold value against which p‐values are measured. p < 0.05 was considered to indicate a statistically significant difference.

HEK293T cells = test: Cytotoxicity by flow cytometry (FITC Annexin V / propidium iodide) on HEK293T cells; assay type: cell-based, human; conditions: for Viability (%): 20 µM
Description: HEK293T cells were seeded in 12‐well plates coated with poly‐d‐lysine (PDL) in a DMEM 10% FBS medium. After 24 h of incubation, the culture medium was removed and the cells were washed three times with PBS. Next, either empty fresh culture medium, medium with the addition of a commercial small molecule (SD‐208 or SB‐525334), or one of the novel peptides TGF‐β inhibitors was added. After 24 h of incubation, cells were removed from the wells and counted using a haemocytometer. Cells were prepared for flow cytometry using the Pharmingen FITC Annexin V Apoptosis Detection Kit I (BD Biosciences, cat. no 556547). 100,000 cells from each sample were suspended in a binding buffer and then stained with FITC and/or propidium iodide. After a 15‐min incubation, the fluorescence profiles of each cell population were measured using a flow cytometer (CytoFLEX, Beckman Coulter), identifying the proportion of cells in apoptosis and necrosis. The data were visualised and quantified by constructing a dot plot using the CytExpert (Beckman Coulter) software.

TGFβRI = system: TGFβRI; parameters: method as in 2 sources, ref 51 = [51]; 51 SB431542 | Activin/BMP/TGF‐Beta Pathway Inhibitor | […] Technologies [Internet] , https://www.stemcell.com/products/sb431542.html . ||| ref 52 = [52]; 52 selleckchem.com [Internet] , “SD‐208 | 99.67%(HPLC) | TGF‐Beta/Smad Inhibitor” , https://www.selleckchem.com/products/sd‐208.html .; conditions: cited from earlier work

Molecule	IC50 [1] [µM]	further results
TSLDASIIWAMMQN [P144]		Viability (%) (HEK293T cells): 82.2%; Effect on HEK293T cell viability compared to untreated cells (HEK293T cells; 20 μM, 24 h, flow cytometry): none of the tested inhibitors reduced cell viability to a statistically significant degree
NC(=O)c1ccc(-c2nc(-c3ccc4c(c3)OCO4)c(-c3ccccn3)[nH]2)cc1 [SB-431542]		IC50 (TGFβRI): 0.094 µM
ACPYLWSSD [2_4]	27.7	
Cc1cccc(-c2[nH]c(C(C)(C)C)nc2-c2ccc3nccnc3c2)n1 [SB-525334, 6‐[2‐tert‐Butyl‐5‐(6‐methyl‐pyridin‐2‐yl)‐1H‐imidazol‐4‐yl]‐quinoxaline]		Viability (%) (HEK293T cells): 86.9%
LDAAYCFRN [1_2]	44	
DAAYCFRNV [1_3]	42.4	
ALDAAYCFR [1_1]	43.3	Viability (%) (HEK293T cells): 88.7%
AAYCFRNVQ [1_4]	57.2	
AGACPYLWS [2_2]	29.3	

Continued, in another order:

IC50 [1] [µM]	Molecule	further results
23.6	GACPYLWSS [2_3]	Viability (%) (HEK293T cells): 86.4%
20.8	YLWSSDTQH [2_7]	
25.7	PYLWSSDTQ [2_6]	
25	WSSDTQHSR [2_9]	
21.9	CPYLWSSDT [2_5]	
24.2	AYCFRNVQD [1_5]	
27.4	LWSSDTQHS [2_8]	
